Test results published in US11395857B2, “Radiolabeled melanocortin 1 receptor-specific alpha-melanocyte-stimulating hormone analogues for imaging or therapy” (PROVINCIAL HEALTH SERVICES AUTHORITY, priority 2018, dated 2022).
Like-named read-outs stand apart in the source and are kept apart here.

Legend:
[1] = Biodistribution of 177Lu-labeled αMSH analogues in mice bearing B16F10 mouse melanoma; assay type: in vivo, C57BL/6J mice; settings: mouse, iv, total radioactivity, C57BL/6J mice, B16F10 melanoma
Description: (§1) The B16-F10 mouse melanoma cells were cultured and inoculated in mice as described in Example 1.
(§2) For biodistribution studies, approximately 1-2 MBq of ^177Lu-labeled αMSH analogues via tail vein under anesthesia. At 1, 4, 24, and 120 h p.i., the mice were euthanized by CO2 inhalation. Organs/tissues were harvested and the radioactivity was measured as described in Example 1.

B16F10 mouse melanoma = test: as above; assay type: in vivo, C57BL/6J mice; settings: C57BL/6J mice, B16F10 melanoma
Description: as §1, §2

tissue uptake at 1 h ([1]; male, seminal glands, 1 h p.i., read-out: Biodistribution, Seminal glands): 0.52 ± 0.15 %ID/g
tissue uptake at 4 h ([1]; male, seminal glands, 4 h p.i., read-out: Biodistribution, Seminal glands): 0.14 ± 0.04 %ID/g
tissue uptake at 24 h ([1]; male, seminal glands, 24 h p.i., read-out: Biodistribution, Seminal glands): 0.08 ± 0.07 %ID/g
tissue uptake at 120 h ([1]; male, seminal glands, 120 h p.i., read-out: Biodistribution, Seminal glands): 0.04 ± 0.03 %ID/g
tissue uptake at 4 h ([1]; male, testes, 4 h p.i., read-out: Biodistribution, Testes): 0.33 ± 0.08 %ID/g
tissue uptake at 24 h ([1]; male, testes, 24 h p.i., read-out: Biodistribution, Testes): 0.17 ± 0.01 %ID/g
tissue uptake at 120 h ([1]; male, testes, 120 h p.i., read-out: Biodistribution, Testes): 0.11 ± 0.01 %ID/g
tissue uptake at 1 h ([1]; adrenal glands, 1 h p.i., read-out: Biodistribution, Adrenal glands): 3.69 ± 2.09 %ID/g
tissue uptake at 4 h ([1]; adrenal glands, 4 h p.i., read-out: Biodistribution, Adrenal glands): 0.88 ± 0.41 %ID/g
tissue uptake at 24 h ([1]; adrenal glands, 24 h p.i., read-out: Biodistribution, Adrenal glands): 0.62 ± 0.34 %ID/g
tissue uptake at 120 h ([1]; adrenal glands, 120 h p.i., read-out: Biodistribution, Adrenal glands): 0.34 ± 0.23 %ID/g
tissue uptake at 1 h ([1]; blood, 1 h p.i., read-out: Biodistribution, Blood): 7.41 ± 1.64 %ID/g
tissue uptake at 4 h ([1]; blood, 4 h p.i., read-out: Biodistribution, Blood): 1.44 ± 0.39 %ID/g
tissue uptake at 24 h ([1]; blood, 24 h p.i., read-out: Biodistribution, Blood): 0.09 ± 0.02 %ID/g
tissue uptake at 120 h ([1]; blood, 120 h p.i., read-out: Biodistribution, Blood): 0.01 %ID/g
tissue uptake at 1 h ([1]; bone, 1 h p.i., read-out: Biodistribution, Bone): 0.98 ± 0.12 %ID/g
tissue uptake at 4 h ([1]; bone, 4 h p.i., read-out: Biodistribution, Bone): 0.3 ± 0.08 %ID/g
tissue uptake at 24 h ([1]; bone, 24 h p.i., read-out: Biodistribution, Bone): 0.23 ± 0.04 %ID/g
tissue uptake at 120 h ([1]; bone, 120 h p.i., read-out: Biodistribution, Bone): 0.13 ± 0.09 %ID/g
tissue uptake at 1 h ([1]; brain, 1 h p.i., read-out: Biodistribution, Brain): 0.13 ± 0.02 %ID/g
tissue uptake at 4 h ([1]; brain, 4 h p.i., read-out: Biodistribution, Brain): 0.04 ± 0.02 %ID/g
tissue uptake at 24 h ([1]; brain, 24 h p.i., read-out: Biodistribution, Brain): 0.02 ± 0.01 %ID/g
tissue uptake at 120 h ([1]; brain, 120 h p.i., read-out: Biodistribution, Brain): 0.01 ± 0.01 %ID/g
tissue uptake at 1 h ([1]; fat, 1 h p.i., read-out: Biodistribution, Fat): 0.65 ± 0.37 %ID/g
tissue uptake at 4 h ([1]; fat, 4 h p.i., read-out: Biodistribution, Fat): 0.16 ± 0.07 %ID/g
tissue uptake at 24 h ([1]; fat, 24 h p.i., read-out: Biodistribution, Fat): 0.06 ± 0.04 %ID/g
tissue uptake at 120 h ([1]; fat, 120 h p.i., read-out: Biodistribution, Fat): 0.03 ± 0.01 %ID/g
tissue uptake at 1 h ([1]; heart, 1 h p.i., read-out: Biodistribution, Heart): 1.84 ± 0.31 %ID/g
tissue uptake at 4 h ([1]; heart, 4 h p.i., read-out: Biodistribution, Heart): 0.4 ± 0.1 %ID/g
tissue uptake at 24 h ([1]; heart, 24 h p.i., read-out: Biodistribution, Heart): 0.13 ± 0.02 %ID/g
tissue uptake at 120 h ([1]; heart, 120 h p.i., read-out: Biodistribution, Heart): 0.07 ± 0.02 %ID/g
tissue uptake at 1 h ([1]; intestine, 1 h p.i., read-out: Biodistribution, Intestine): 1.39 ± 0.37 %ID/g
tissue uptake at 4 h ([1]; intestine, 4 h p.i., read-out: Biodistribution, Intestine): 0.37 ± 0.11 %ID/g
tissue uptake at 24 h ([1]; intestine, 24 h p.i., read-out: Biodistribution, Intestine): 0.18 ± 0.03 %ID/g
tissue uptake at 120 h ([1]; intestine, 120 h p.i., read-out: Biodistribution, Intestine): 0.43 ± 0.55 %ID/g
tissue uptake at 1 h ([1]; kidneys, 1 h p.i., read-out: Biodistribution, Kidneys): 13.2 ± 3.61 %ID/g
tissue uptake at 4 h ([1]; kidneys, 4 h p.i., read-out: Biodistribution, Kidneys): 13.5 ± 3.47 %ID/g
tissue uptake at 24 h ([1]; kidneys, 24 h p.i., read-out: Biodistribution, Kidneys): 8.1 ± 2.24 %ID/g
tissue uptake at 120 h ([1]; kidneys, 120 h p.i., read-out: Biodistribution, Kidneys): 1.85 ± 0.57 %ID/g
tissue uptake at 1 h ([1]; liver, 1 h p.i., read-out: Biodistribution, Liver): 2.72 ± 0.27 %ID/g
tissue uptake at 4 h ([1]; liver, 4 h p.i., read-out: Biodistribution, Liver): 1.98 ± 0.41 %ID/g
tissue uptake at 24 h ([1]; liver, 24 h p.i., read-out: Biodistribution, Liver): 4.7 ± 3.76 %ID/g
tissue uptake at 120 h ([1]; liver, 120 h p.i., read-out: Biodistribution, Liver): 0.55 ± 0.18 %ID/g
tissue uptake at 1 h ([1]; lungs, 1 h p.i., read-out: Biodistribution, Lungs): 5.51 ± 1.75 %ID/g
tissue uptake at 4 h ([1]; lungs, 4 h p.i., read-out: Biodistribution, Lungs): 2.34 ± 1.21 %ID/g
tissue uptake at 24 h ([1]; lungs, 24 h p.i., read-out: Biodistribution, Lungs): 1.19 ± 0.81 %ID/g
tissue uptake at 120 h ([1]; lungs, 120 h p.i., read-out: Biodistribution, Lungs): 0.1 ± 0.05 %ID/g
tissue uptake at 1 h ([1]; muscle, 1 h p.i., read-out: Biodistribution, Muscle): 0.76 ± 0.14 %ID/g
tissue uptake at 4 h ([1]; muscle, 4 h p.i., read-out: Biodistribution, Muscle): 0.17 ± 0.04 %ID/g
tissue uptake at 24 h ([1]; muscle, 24 h p.i., read-out: Biodistribution, Muscle): 0.06 ± 0.02 %ID/g
tissue uptake at 120 h ([1]; muscle, 120 h p.i., read-out: Biodistribution, Muscle): 0.03 ± 0.01 %ID/g
tissue uptake at 1 h ([1]; pancreas, 1 h p.i., read-out: Biodistribution, Pancreas): 1.23 ± 0.18 %ID/g
tissue uptake at 4 h ([1]; pancreas, 4 h p.i., read-out: Biodistribution, Pancreas): 0.31 ± 0.1 %ID/g
tissue uptake at 24 h ([1]; pancreas, 24 h p.i., read-out: Biodistribution, Pancreas): 0.1 ± 0.01 %ID/g
tissue uptake at 120 h ([1]; pancreas, 120 h p.i., read-out: Biodistribution, Pancreas): 0.06 ± 0.01 %ID/g
tissue uptake at 1 h ([1]; spleen, 1 h p.i., read-out: Biodistribution, Spleen): 1.99 ± 0.38 %ID/g
tissue uptake at 4 h ([1]; spleen, 4 h p.i., read-out: Biodistribution, Spleen): 0.83 ± 0.1 %ID/g
tissue uptake at 24 h ([1]; spleen, 24 h p.i., read-out: Biodistribution, Spleen): 1 ± 0.35 %ID/g
tissue uptake at 120 h ([1]; spleen, 120 h p.i., read-out: Biodistribution, Spleen): 0.3 ± 0.12 %ID/g
tissue uptake at 1 h ([1]; stomach, 1 h p.i., read-out: Biodistribution, Stomach): 1.2 ± 0.45 %ID/g
tissue uptake at 4 h ([1]; stomach, 4 h p.i., read-out: Biodistribution, Stomach): 0.26 ± 0.14 %ID/g
tissue uptake at 24 h ([1]; stomach, 24 h p.i., read-out: Biodistribution, Stomach): 0.31 ± 0.17 %ID/g
tissue uptake at 120 h ([1]; stomach, 120 h p.i., read-out: Biodistribution, Stomach): 1.83 ± 2.7 %ID/g
tissue uptake at 1 h ([1]; thyroid, 1 h p.i., read-out: Biodistribution, Thyroid): 1.68 ± 0.26 %ID/g
tissue uptake at 4 h ([1]; thyroid, 4 h p.i., read-out: Biodistribution, Thyroid): 0.51 ± 0.13 %ID/g
tissue uptake at 24 h ([1]; thyroid, 24 h p.i., read-out: Biodistribution, Thyroid): 0.24 ± 0.04 %ID/g
tissue uptake at 120 h ([1]; thyroid, 120 h p.i., read-out: Biodistribution, Thyroid): 0.15 ± 0.03 %ID/g
tissue to tissue ratio at 1 h ([1]; tumour/blood, 1 h p.i., read-out: Tumour/blood): 1.42 ± 0.2
tissue to tissue ratio at 4 h ([1]; tumour/blood, 4 h p.i., read-out: Tumour/blood): 7.97 ± 2.18
tissue to tissue ratio at 24 h ([1]; tumour/blood, 24 h p.i., read-out: Tumour/blood): 60.6 ± 23.8
tissue to tissue ratio at 120 h ([1]; tumour/blood, 120 h p.i., read-out: Tumour/blood): 84.4 ± 47.2
tissue to tissue ratio at 1 h ([1]; tumour/kidney, 1 h p.i., read-out: Tumour/kidney): 0.8 ± 0.09
tissue to tissue ratio at 4 h ([1]; tumour/kidney, 4 h p.i., read-out: Tumour/kidney): 0.85 ± 0.24
tissue to tissue ratio at 24 h ([1]; tumour/kidney, 24 h p.i., read-out: Tumour/kidney): 0.68 ± 0.22
tissue to tissue ratio at 120 h ([1]; tumour/kidney, 120 h p.i., read-out: Tumour/kidney): 0.45 ± 0.21
tissue to tissue ratio at 1 h ([1]; tumour/muscle, 1 h p.i., read-out: Tumour/muscle): 13.8 ± 2.48
tissue to tissue ratio at 4 h ([1]; tumour/muscle, 4 h p.i., read-out: Tumour/muscle): 65.4 ± 13.7
tissue to tissue ratio at 24 h ([1]; tumour/muscle, 24 h p.i., read-out: Tumour/muscle): 104 ± 53
tissue to tissue ratio at 120 h ([1]; tumour/muscle, 120 h p.i., read-out: Tumour/muscle): 35.6 ± 22.4
excreta dose per gram or mL at 1 h ([1]; urine, 1 h p.i.): 322 ± 306 %ID/g
excreta dose per gram or mL at 4 h ([1]; urine, 4 h p.i.): 106 ± 97.1 %ID/g
excreta dose per gram or mL at 24 h ([1]; urine, 24 h p.i.): 3.17 ± 1.25 %ID/g
excreta dose per gram or mL at 120 h ([1]; urine, 120 h p.i.): 0.51 ± 0.21 %ID/g
Biodistribution, B16F10 tumour (B16F10 mouse melanoma; 1 h p.i.): 10.6 ± 2.95 % ID/g
Biodistribution, B16F10 tumour (B16F10 mouse melanoma; 4 h p.i.): 10.9 ± 2.22 % ID/g
Biodistribution, B16F10 tumour (B16F10 mouse melanoma; 24 h p.i.): 5.50 ± 2.36 % ID/g
Biodistribution, B16F10 tumour (B16F10 mouse melanoma; 120 h p.i.): 0.88 ± 0.58 % ID/g
Compound: CCCC[C@H](NC(=O)CN1CCC(NC(=O)[C@H](CCCCNC(=O)CN2CCN(CC(=O)O)CCN(CC(=O)O)CCN(CC(=O)O)CC2)NC(=O)[C@H](CCC(=O)O)NC(=O)CCCc2ccc(I)cc2)CC1)C(=O)N[C@H]1CC(=O)NCCCC[C@@H](C(N)=O)N(C)C(=O)[C@H](Cc2c[nH]c3ccccc23)N(C)C(=O)[C@H](CCCNC(=N)N)N(C)C(=O)[C@@H](Cc2ccccc2)NC(=O)[C@H](Cc2c[nH]cn2)N(C)C1=O [^177Lu-labeled CCZ01088, metal not drawn]
